The experiment relates to HCC1428 tumors. Briefly: Cell line derived xenograft (CDX) study with HCC1428 tumors. The class given is in vivo, BALB/c nude mice. The note with it: 45 mg/kg QD p.o.; for TGI value: versus vehicle group. Here is the method:
For this xenograft, supplemental estradiol benzoate injections (40 μg/20 μl/mouse) are administered subcutaneously twice a week to BALB/c nude mice, starting one week prior to cell implantation and continuing through to the end of study. After implantation, HCC1428 tumor were allocated to treatment arms once a median tumor volume of about 181 mm^3 was reached. In Table 3A the abbreviation “p.o.” refers to oral administration and the abbreviation “QD×28” refers to administration once a day for 28 days.
Tumors were measured and mice were weighed twice a week during the experimental period. The tumor volume (mm3) was estimated using the formula: TV=a×b2/2, where “a” and “b” were the long and the short diameter of a tumor, respectively. The Tumor volumes were used to calculate tumor growth inhibition (TGI, an indicator of antitumor activity) using the formula: TGI %: (1−{T/T0/Ct/C0}/1−{C0/Ct})×100 where Tt=median tumor volume of treated at time t, T0=median tumor volume of treated at time 0, Ct=median tumor volume of control at time t and C0=median tumor volume of control at time 0.
For this xenograft, supplemental estradiol benzoate injections (40 μg/20 μl/mouse) are administered subcutaneously twice a week to BALB/c nude mice, starting one week prior to cell implantation and continuing through to the end of study. After implantation, HCC1428 tumor were allocated to treatment arms once a median tumor volume of about 181 mm^3 was reached. In Table 4A the abbreviation “p.o.” refers to oral administration and the abbreviation “QD×28” refers to administration once a day for 28 days.
Tumors were measured and mice were weighed twice a week during the experimental period. The tumor volume (mm^3) was estimated using the formula: TV=a×b2/2, where “a” and “b” were the long and the short diameter of a tumor, respectively. The Tumor volumes were used to calculate tumor growth inhibition (TGI, an indicator of antitumor activity) using the formula: TGI %: (1−{T/T0/Ct/C0}/1−{C0/Ct})×100 where Tt=median tumor volume of treated at time t, T0=median tumor volume of treated at time 0, Ct=median tumor volume of control at time t and C0=median tumor volume of control at time 0. […] At 100 mg/kg QD the mean tumor volume achieved was 116 mm3, on Day 71. The tumor growth inhibition (TGI) of these treatments compared with vehicle group on Day 28 or 71 of the treatment is summarized in Table 4B (See FIG. 3).

Under “Compound A study”, `NC(=O)c1cccc2cn(-c3ccc([C@@H]4CCCNC4)cc3)nc12` [niraparib, reference compound] had a mean tumor volume of 230 mm^3 and a TGI value of 75.2%. Further, where the note is “Compound B study”, the mean tumor volume worked out at 230 mm^3 and the TGI value came to 75.2%.

The values are drawn from US20260216174A1, “TREATMENT OF ER+ BREAST CANCER COMPRISING HOMOLOGOUS RECOMBINATION DEFICIENCY USING PARG INHIBITOR” (IDEAYA BIOSCIENCES, INC., priority 2023, published 2026).
